Where “and” joins values, the source holds several entries; their conditions need not be identical. Equal entries are not always repeated.
How the values were obtained:
[1] = Rat brain homogenate binding, equilibrium dialysis (RED); assay type: in vitro ADME
Procedure: Brain and plasma drug binding were performed by equilibrium dialysis using the Rapid Equilibrium Dialysis (RED) device. Briefly, 300 µL of plasma or brain homogenate (1 brain /3 buffer) containing drug (5 µM) was equilibrated (4-18 h) against 500 µL of buffered saline. After incubation, the concentration of drug in plasma/brain homogenate and buffer was determined by LC-MS/MS.
Two runs of rat brain homogenate binding with I-1 compared to Comparison-1. I-1 is approximately 10-fold more free in rat brain than Comparison-1.

[2] = tested on: TLR4-induced IL-23 and TNF-α; assay: TLR4 induced TNF-α in THP-1 cells; assay type: cell-based; conditions: human THP-1 cells; result in words
Procedure: Assay Protocol: TLR4 and TLR2 induced cytokines in THP-1 cells. […]
THP-1 cells (100K in 100 µL/well) were primed with 25 ng/mL IFN-γ for 18 hours at 37°C, 5% CO2. […] IL-23p 19 or TNF-α protein in the supernatant were measured by sandwich ELISA. […] The plates were read with a luminometer, and the chemiluminescence values were entered into Athena (Rigel) for curve fitting, EC50 calculation, and database storage.

TLR4-dependent = TLR4-dependent cytokine production in mouse macrophages; assay type: cell-based; conditions: result in words

CCO[C@H]1CC[C@H](n2cc(NC(=O)c3csc(-c4cn[nH]c4)n3)c(-c3ncccn3)n2)CC1 [Compound I-1, N-(1-((1r,4r)-4-ethoxycyclohexyl)-3-(pyrimidin-2-yl)-1H-pyrazol-4-yl)-2-(1H-pyrazol-4-yl)thiazole-4-carboxamide]
more free in rat brain than Comparison-1 ([1]; rat brain homogenate): approximately 10 fold
rat brain homogenate binding (free drug) ([1]; two runs, brain homogenate 1 brain /3 buffer, drug 5 µM, 5 µM): 1.06% and 1.43%
TLR4-induced TNF-α production [2]: inhibits
TLR4-dependent cytokine production (TLR4-dependent): potent inhibitor

Reference: patent EP4799701A2, “PYRIMID-2-YL-PYRAZOLE COMPOUNDS AS IRAK INHIBITORS” (Rigel Pharmaceuticals, Inc., priority 2022, dated 2023)
